Source: patent publication US4556517A, “Carbapenem derivatives” (Shionogi & Co., Ltd., priority 1981, dated 1985)
≈ marks a conversion by molar mass, not a printed value.

Columns and labels:
[1] = biological target: β-lactamase of Enterobacter cloacae 92 (cephalosporinase type) (Enterobacter cloacae, UniProt P05364); assay: β-Lactamase inhibitory test, cephalosporinase-type; format: biochemical; settings: 10 minutes preincubation, room temperature, minimum concentration to inhibit color change of indicator
Sequence of β-lactamase of Enterobacter cloacae 92 (cephalosporinase type) (P05364 21-381): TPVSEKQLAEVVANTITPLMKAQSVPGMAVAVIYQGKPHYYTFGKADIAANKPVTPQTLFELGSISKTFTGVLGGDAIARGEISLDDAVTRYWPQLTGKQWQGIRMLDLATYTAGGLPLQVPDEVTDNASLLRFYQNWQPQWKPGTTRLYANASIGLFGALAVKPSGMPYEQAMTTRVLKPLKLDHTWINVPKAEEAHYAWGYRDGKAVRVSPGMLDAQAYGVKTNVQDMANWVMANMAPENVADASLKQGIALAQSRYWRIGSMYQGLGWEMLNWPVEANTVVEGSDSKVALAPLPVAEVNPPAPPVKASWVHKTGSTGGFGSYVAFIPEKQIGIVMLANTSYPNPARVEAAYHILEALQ
Description: *1 producing lactamase of cephalosporinasetype
(§1) *3 The test compound was incubated with enzyme at room temperature for 10
(§2) minutes prior to adding an indicator and the minimum concentration to
(§3) inhibit color change was determined.

Enterobacter cloacae 233 = assay: Antibacterial Spectrum, agar dilution method; format: cell-based; settings: inoculum 10^6 cells/ml, sensitivity disc agar, 37° C. overnight, read-out: Minimum Inhibitory Concentration
Description: (§4) Determined by agar dilution method;
(§5) Inoculum size is 10^6 cells/ml;
(§6) Cultivation in sensitivitydisc agar at 37° C. overnight.

[2] = test system: Streptococcus pneumoniae I; assay: Antibacterial Spectrum, agar dilution method; format: cell-based; settings: inoculum 10^6 cells/ml, sensitivity disc agar, 37° C. overnight, read-out: Minimum Inhibitory Concentration
Description: as §4, §5, §6

Proteus mirabilis PR-4 = assay: Antibacterial Spectrum, agar dilution method; format: cell-based; settings: PR4, inoculum 10^6 cells/ml, sensitivity disc agar, 37° C. overnight, read-out: Minimum Inhibitory Concentration
Description: as §4, §5, §6

[3] = test system: Escherichia coli NIHJ JC-2; assay: Antibacterial Spectrum, agar dilution method; format: cell-based; settings: NIHJJC2, inoculum 10^6 cells/ml, sensitivity disc agar, 37° C. overnight, read-out: Minimum Inhibitory Concentration
Description: as §4, §5, §6

[4] = test system: Klebsiella pneumoniae SRL-1; assay: Antibacterial Spectrum, agar dilution method; format: cell-based; settings: SRL1, inoculum 10^6 cells/ml, sensitivity disc agar, 37° C. overnight, read-out: Minimum Inhibitory Concentration
Description: as §4, §5, §6

[5] = test system: Staphylococcus aureus 209P JC-1; assay: Antibacterial Spectrum, agar dilution method; format: cell-based; settings: inoculum 10^6 cells/ml, sensitivity disc agar, 37° C. overnight, read-out: Minimum Inhibitory Concentration
Description: as §4, §5, §6

[6] = test system: Pseudomonas aeruginosa ATCC 25619; assay: Antibacterial Spectrum, agar dilution method; format: cell-based; settings: ATCC25619, inoculum 10^6 cells/ml, sensitivity disc agar, 37° C. overnight, read-out: Minimum Inhibitory Concentration
Description: as §4, §5, §6

Klebsiella sp. 363(R) = assay: Antibacterial Spectrum, agar dilution method; format: cell-based; settings: inoculum 10^6 cells/ml, sensitivity disc agar, 37° C. overnight, read-out: Minimum Inhibitory Concentration
Description: as §4, §5, §6

[7] = test system: β-lactamase of Klebsiella sp. 363 (penicillinase type); assay: β-Lactamase inhibitory test, penicillinase-type; format: biochemical; settings: 10 minutes preincubation, room temperature, minimum concentration to inhibit color change of indicator
Description: *2 producing lactamase of penicillinasetype
as §1, §2, §3

Compound | Minimum Effective Concentration [1] [µg/mL] | MIC (Enterobacter cloacae 233) [µg/mL] | MIC [2] [µg/mL] | MIC (Proteus mirabilis PR-4) [µg/mL] | MIC [3] [µg/mL] | MIC [4] [µg/mL] | MIC [5] [µg/mL] | MIC [6] [µg/mL] | MIC (Klebsiella sp. 363(R)) [µg/mL] | Minimum Effective Concentration [7] [µg/mL]
CC(OS(=O)(=O)O)C1C(=O)N2C(C(=O)O)=C(SCC(=O)O)CC12 (stereo not drawn) [Deoxy PLM B, 3-Carboxymethylthio-6-(1-hydroxysulfonyloxyethyl)-7-oxo-1-azabicyclo[3.2.0]-hept-2-ene-2-carboxylic acid] | 0.002 | 6.25 (≈ 17 µM) | 1.56 (≈ 4.25 µM) | 0.78 (≈ 2.12 µM) | 1.56 (≈ 4.25 µM) | 0.78 (≈ 2.12 µM) | 3.13 (≈ 8.52 µM) | > 100 | 1.56 (≈ 4.25 µM) | 0.063
CC(OS(=O)(=O)O)C1C(=O)N2C(C(=O)O)=C(SC(O)O)CC12 (stereo not drawn) [Deoxy PLM C, 3-dihydroxymethylthio-6-(1-hydroxysulfonyloxyethyl)-7-oxo-1-azabicyclo[3.2.0]-hept-2-ene-2-carboxylic acid] | 0.002 | 3.13 (≈ 8.81 µM) | 0.2 (≈ 0.563 µM) | 0.78 (≈ 2.2 µM) | 0.78 (≈ 2.2 µM) | 0.78 (≈ 2.2 µM) | 0.78 (≈ 2.2 µM) | > 100 | 0.78 (≈ 2.2 µM) | 0.125
CC(OS(=O)(=O)O)C1C(=O)N2C(C(=O)O)=C([S+]([O-])CO)CC12 (stereo not drawn) [Dihydro PLM C, 3-hydroxymethylsulfinyl-6-(1-hydroxysulfonyloxyethyl)-7-oxo-1-azabicyclo[3.2.0]-hept-2-ene-2-carboxylic acid] | 0.008 | > 100 | 3.1 (≈ 8.72 µM) | 25 (≈ 70.4 µM) | 12.5 (≈ 35.2 µM) | 25 (≈ 70.4 µM) | 12.5 (≈ 35.2 µM) | > 100 | 12.5 (≈ 35.2 µM) | 0.004
